In patent publication US6492495B1, “PTP-S31: a novel protein tyrosine phosphatase” (Max-Planck-Gesellschaft zur Forderung der Wissenschaften …, priority 1993, dated 2002):
Like-named read-outs stand apart in the source and are kept apart here.

Columns and labels:
[1] = tested on: LAR; settings: Raytide substrate, cited from earlier work
[2] = target: T1, GST/PTP-S31 fusion protein (S31D) (Homo sapiens, UniProt Q9UMZ3); assay: PTP assay of GST/PTP-S31D fusion protein on glutathione-Sepharose beads, substrate pNP-P, effect of agents; format: biochemical; settings: 25 mM pNP-P
T1 construct: p16 encodes a fusion protein of glutathione-S-transferase and PTP-S31D (starting with the first methionine); made in house; host or cells: E. coli DH5α and SURE
T1 sequence (Q9UMZ3 with tags, fused parts or gaps): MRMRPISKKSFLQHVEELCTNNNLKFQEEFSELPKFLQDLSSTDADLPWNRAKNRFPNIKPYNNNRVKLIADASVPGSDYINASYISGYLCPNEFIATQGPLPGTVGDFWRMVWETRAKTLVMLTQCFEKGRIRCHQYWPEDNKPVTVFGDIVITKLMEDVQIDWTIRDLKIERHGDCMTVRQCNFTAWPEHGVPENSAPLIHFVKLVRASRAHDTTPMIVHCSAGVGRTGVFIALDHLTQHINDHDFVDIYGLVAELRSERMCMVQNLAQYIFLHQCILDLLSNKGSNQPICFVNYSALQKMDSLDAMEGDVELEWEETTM
Procedure: The activity of PTP-S31D towards the substrate p-nitrophenyl phosphate (pNP-P) was measured essentially as described by Tonks et al., J. Biol. Chem. 263:6731-6737 (1988)). Increasing amounts of the glutathione-Sepharose beads with GST/PTP-S31D, GST/PTP-S31C and GST, respectively, from above were incubated with 25 mM pNP-P at room temperature in a reaction mixture containing 50 mM 2-(N-morpholino) ethane sulfonic acid (MES) pH 5.5, 10 mM dithiothreitol, and 5 mM ethylenediamine tetraacetic acid (EDTA). The reaction was stopped by addition of equal volumes of 0.4 M NaOH. After centrifugation, the supernatants were transferred to microtiter plates and the absorbance at 405 nm was read with a Dynatech MR5000 reader.
The activity of the GST/PTP-S31D fusion protein towards pNP-P is measured as described in Section 10, above. The substances to be analyzed for their ability to stimulate or inhibit phosphatase activity are added to the GST/PTP-S31D fusion protein 5 minutes prior to the addition of pNP-P. A similar procedure is used for PTP-S31D expressed in 293 cells, where the PTP-S31D/293 cell lysate is used directly.
The indicated concentrations of the agents are the final concentrations in the reaction mixture after addition of the substrate, pNP-P. The phosphatase assay mixture contained 50 mM 2-(N-Morpholino)ethane sulfonic acid (MES) pH 5.5, 10 mM dithiothreitol, 25 mM pNP-P and 2 μl of the GST/PTP-S31-Sepharose suspension. When testing orthovanadate, poly(Glu/Tyr) 4:1 and poly-L-lysine, 5 mM EDTA was included in the assay mixture. The reaction was carried out at room temperature and stopped after 30 minutes by addition of equal volumes of 0.4M NaOH. After centrifugation, the supernatants were transferred to microtiter plates and the absorbance at 405 nm read with a Dynatech MR5000 plate reader. For comparison, Table I includes published data of the activity of PTPB and LAR using Raytide as a substrate (Itoh et al (J. Biol. Chem. 267: 12356-12363 (1992)).

[3] = target: PTPβ (Homo sapiens, UniProt P23467); settings: Raytide substrate, cited from earlier work
Chain of PTPβ (P23467 1643-1997 limits assumed): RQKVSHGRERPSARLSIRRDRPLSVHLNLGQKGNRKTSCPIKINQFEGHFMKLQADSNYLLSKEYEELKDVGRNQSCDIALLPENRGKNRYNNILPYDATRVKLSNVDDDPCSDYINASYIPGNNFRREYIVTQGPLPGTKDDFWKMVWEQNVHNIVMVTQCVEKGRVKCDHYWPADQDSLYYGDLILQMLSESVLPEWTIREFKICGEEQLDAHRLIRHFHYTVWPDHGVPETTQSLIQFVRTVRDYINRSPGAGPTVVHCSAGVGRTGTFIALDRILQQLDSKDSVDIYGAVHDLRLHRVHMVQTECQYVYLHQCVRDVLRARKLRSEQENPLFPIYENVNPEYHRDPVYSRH

[4] = tested on: skeletal muscle or adipocytes; settings: whole cells such as skeletal muscle or adipocytes; cited from earlier work
[5] = agent 1 mM final, MES pH 5.5, 30 min room temperature
[6] = agent 10 mM final, MES pH 5.5, 30 min room temperature
[7] = agent 0.1 mM final, MES pH 5.5, 30 min room temperature
[8] = agent 1 μg/ml final, MES pH 5.5, 5 mM EDTA, 30 min room temperature
[9] = agent 10 μg/ml final, MES pH 5.5, 5 mM EDTA, 30 min room temperature
[10] = agent 100 μg/ml final, MES pH 5.5, 5 mM EDTA, 30 min room temperature

## [Cl-].[Cl-].[Mg+2] [MgCl2]
[1]; agent 1 mM
  PTP Activity (% of control) LAR: 119 % of control
[1]; agent 10 mM
  PTP Activity (% of control) LAR: 56 % of control
[2]; [5]
  PTP Activity (% of control) S31D: 123 % of control
[2]; [6]
  PTP Activity (% of control) S31D: 140 % of control
[3]; agent 1 mM
  PTP Activity (% of control) PTPβ: 90 % of control
[3]; agent 10 mM
  PTP Activity (% of control) PTPβ: 141 % of control

## [Cl-].[Cl-].[Zn+2] [ZnCl2]
[1]; agent 0.1 mM
  PTP Activity (% of control) LAR: 90 % of control
[1]; agent 1 mM
  PTP Activity (% of control) LAR: 120 % of control
[1]; agent 10 mM
  PTP Activity (% of control) LAR: 6 % of control
[2]; [7]
  PTP Activity (% of control) S31D: 68 % of control
[2]; [5]
  PTP Activity (% of control) S31D: 13 % of control
[2]; [6]
  PTP Activity (% of control) S31D: 9 % of control
[3]; agent 0.1 mM
  PTP Activity (% of control) PTPβ: 18 % of control
[3]; agent 1 mM
  PTP Activity (% of control) PTPβ: 3 % of control
[3]; agent 10 mM
  PTP Activity (% of control) PTPβ: 0 % of control

## poly-L-lysine
[1]; agent 1 μg/ml
  PTP Activity (% of control) LAR: 123 % of control
[1]; agent 10 μg/ml
  PTP Activity (% of control) LAR: 230 % of control
[1]; agent 100 μg/ml
  PTP Activity (% of control) LAR: 247 % of control
[2]; [8]
  PTP Activity (% of control) S31D: 156 % of control
[2]; [9]
  PTP Activity (% of control) S31D: 172 % of control
[2]; [10]
  PTP Activity (% of control) S31D: 192 % of control
[3]; agent 1 μg/ml
  PTP Activity (% of control) PTPβ: 239 % of control
[3]; agent 10 μg/ml
  PTP Activity (% of control) PTPβ: 653 % of control
[3]; agent 100 μg/ml
  PTP Activity (% of control) PTPβ: 125 % of control

## [Cl][Mn][Cl] [MnCl2]
[1]; agent 1 mM
  PTP Activity (% of control) LAR: 72 % of control
[1]; agent 10 mM
  PTP Activity (% of control) LAR: 30 % of control
[2]; [5]
  PTP Activity (% of control) S31D: 110 % of control
[2]; [6]
  PTP Activity (% of control) S31D: 140 % of control
[3]; agent 1 mM
  PTP Activity (% of control) PTPβ: 85 % of control
[3]; agent 10 mM
  PTP Activity (% of control) PTPβ: 64 % of control

## [O]=[V]([O-])([O-])[O-] [Orthovanadate, orthovanadate]
[1]; agent 0.1 mM
  PTP Activity (% of control) LAR: 59 % of control
[1]; agent 1 mM
  PTP Activity (% of control) LAR: 25 % of control
[2]; [7]
  PTP Activity (% of control) S31D: 64 % of control
[2]; [5]
  PTP Activity (% of control) S31D: 23 % of control
[3]; agent 0.1 mM
  PTP Activity (% of control) PTPβ: 33 % of control
[3]; agent 1 mM
  PTP Activity (% of control) PTPβ: 6 % of control

## pervanadate
[4]
  insulin response of whole cells: almost full insulin response

## poly(Glu/Tyr) 4:1 [Poly (Glu/Tyr)]
[1]; agent 1 μg/ml
  PTP Activity (% of control) LAR: 103 % of control
[1]; agent 10 μg/ml
  PTP Activity (% of control) LAR: 97 % of control
[1]; agent 100 μg/ml
  PTP Activity (% of control) LAR: 96 % of control
[2]; [8]
  PTP Activity (% of control) S31D: 84 % of control
[2]; [9]
  PTP Activity (% of control) S31D: 85 % of control
[2]; [10]
  PTP Activity (% of control) S31D: 77 % of control
[3]; agent 1 μg/ml
  PTP Activity (% of control) PTPβ: 97 % of control
[3]; agent 10 μg/ml
  PTP Activity (% of control) PTPβ: 85 % of control
[3]; agent 100 μg/ml
  PTP Activity (% of control) PTPβ: 61 % of control
